Test results: patent US10328054B2, “Substituted pyrrolidines as mGluR5 antagonists” (Hua Medicine (Shanghai) Ltd., priority 2015, dated 2019)

Molecular target: recombinant rat mGluR5 (Rattus norvegicus (Rat), UniProt P31424)
Experiment: Functional calcium flux assay (FLIPR)
Format: cell-based
Conditions: HEK293 cells stably expressing recombinant rat mGluR5; inhibition of glutamate-evoked [Ca2+]i increase, 15 min incubation of test compound
Experimental: For functional assays, HEK293 cells stably expressing recombinant rat mGluR5 were seeded in 384-well plates and dye loaded using Fluo-8. Cells were then washed to remove the un-incorporated dye. Antagonist evaluation was performed following a 15 min incubation of the test compound followed by the addition of submaximal concentration of glutamate. Intracellular calcium ([Ca^2+]i) measurements were performed using a fluorometric imaging plate reader (FLIPR, Molecular Devices). The glutamate-evoked increase in [Ca^2+]i in the presence of the test compounds was compared to the response to glutamate alone (the positive control). Antagonist inhibition curves were fitted with a 4-parameter logistic equation giving IC50 values, and Hill coefficients using an iterative nonlinear curve fitting algorithm.
The tables below provide IC50 data in this assay. In the activity column, A=IC50>1,000 and <5,000 nM; B=IC50>500 and <1,000 nM and C=IC50<500 nM.

Chain of recombinant rat mGluR5 (P31424 21-1203): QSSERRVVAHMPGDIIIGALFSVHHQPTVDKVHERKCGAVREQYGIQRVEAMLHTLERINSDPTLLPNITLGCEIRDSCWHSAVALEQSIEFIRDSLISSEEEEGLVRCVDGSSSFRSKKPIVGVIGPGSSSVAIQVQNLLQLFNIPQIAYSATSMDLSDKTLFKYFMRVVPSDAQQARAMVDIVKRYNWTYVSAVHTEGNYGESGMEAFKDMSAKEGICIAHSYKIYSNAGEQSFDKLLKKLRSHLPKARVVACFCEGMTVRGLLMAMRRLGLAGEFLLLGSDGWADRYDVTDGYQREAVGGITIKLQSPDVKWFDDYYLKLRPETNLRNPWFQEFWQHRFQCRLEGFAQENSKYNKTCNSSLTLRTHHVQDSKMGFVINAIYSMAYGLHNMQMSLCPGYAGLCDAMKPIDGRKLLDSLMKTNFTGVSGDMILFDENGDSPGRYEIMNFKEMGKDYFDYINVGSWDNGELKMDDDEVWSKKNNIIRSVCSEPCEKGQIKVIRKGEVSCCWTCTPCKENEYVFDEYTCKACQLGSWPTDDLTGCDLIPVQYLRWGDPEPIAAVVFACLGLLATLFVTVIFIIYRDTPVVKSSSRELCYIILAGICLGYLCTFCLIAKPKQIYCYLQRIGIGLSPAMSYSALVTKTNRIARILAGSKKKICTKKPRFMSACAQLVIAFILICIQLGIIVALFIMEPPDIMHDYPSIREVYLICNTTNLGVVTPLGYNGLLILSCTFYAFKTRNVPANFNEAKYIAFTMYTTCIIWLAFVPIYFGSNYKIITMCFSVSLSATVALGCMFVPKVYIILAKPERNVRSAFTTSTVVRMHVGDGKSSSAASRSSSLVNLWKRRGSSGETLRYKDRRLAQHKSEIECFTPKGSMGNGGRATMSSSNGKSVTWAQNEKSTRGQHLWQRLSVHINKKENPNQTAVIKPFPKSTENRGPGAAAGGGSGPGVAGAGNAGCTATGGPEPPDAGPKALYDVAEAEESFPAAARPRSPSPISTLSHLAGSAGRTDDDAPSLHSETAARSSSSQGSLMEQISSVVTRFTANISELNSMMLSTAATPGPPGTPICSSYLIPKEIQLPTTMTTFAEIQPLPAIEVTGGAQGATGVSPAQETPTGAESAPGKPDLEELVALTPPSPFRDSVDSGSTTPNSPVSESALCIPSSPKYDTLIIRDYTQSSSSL

SMILES | IC50 [nM]
O=S(=O)(c1cccc(Cl)c1)N1CC2CC2(C#Cc2ccccn2)C1 (centres unmarked) [Example Compound 34, 3-((3-chlorophenyl)sulfonyl)-1-(pyridin-2-ylethynyl)-3-azabicyclo[3.1.0]hexane] | < 500
Clc1cccc(N2CC3CC3(C#Cc3ccccn3)C2)c1 (centres unmarked) [Example Compound 18, 3-(3-chlorophenyl)-1-(pyridin-2-ylethynyl)-3-azabicyclo[3.1.0]hexane] | < 500
Cc1ccc(S(=O)(=O)N2CC3CC3(C#Cc3ccccn3)C2)cc1 (centres unmarked) [Example Compound 37, 1-(pyridin-2-ylethynyl)-3-tosyl-3-azabicyclo[3.1.0]hexane] | < 500
FC(F)(F)Oc1ccc(N2CC3CC3(C#Cc3ccccn3)C2)cc1 (centres unmarked) [Example Compound 3, 1-(pyridin-2-ylethynyl)-3-(4-(trifluoromethoxy)phenyl)-3-azabicyclo[3.1.0]hexane] | 1000 to 5000
Fc1cc(Cl)ccc1N1CC2CC2(C#Cc2ccccn2)C1 (centres unmarked) [Example Compound 21, 3-(4-chloro-2-fluorophenyl)-1-(pyridin-2-ylethynyl)-3-azabicyclo[3.1.0]hexane] | 500 to 1000
Fc1cccc(N2CC3CC3(C#Cc3ncccn3)C2)c1 (centres unmarked) [Example Compound 46, 3-(3-fluorophenyl)-1-(pyrimidin-2-ylethynyl)-3-azabicyclo[3.1.0]hexane] | < 500
N#Cc1cc(F)cc(N2CC3CC3(C#Cc3ccccn3)C2)c1 (stereo not drawn) [Example Compound 1, 3-fluoro-S-(1-(pyridin-2-ylethynyl)-3-azabicyclo[3.1.0]hexan-3-yl) benzonitrile] | < 500
O=C(c1cccc(F)c1)N1CC2CC2(C#Cc2ccccn2)C1 (centres unmarked) [Example Compound 41, (3-fluorophenyl)-(1-(pyridin-2-ylethynyl)-3-azabicyclo[3.1.0]hexan-3-yl)methanone] | < 500
Clc1ccccc1N1CC2CC2(C#Cc2ccccn2)C1 (centres unmarked) [Example Compound 17, 3-(2-chlorophenyl)-1-(pyridin-2-ylethynyl)-3-azabicyclo[3.1.0]hexane] | < 500
O=C(c1ccccc1Cl)N1CC2CC2(C#Cc2ccccn2)C1 (centres unmarked) [Example Compound 30, (2-chlorophenyl) (1-(pyridin-2-ylethynyl)-3-azabicyclo[3.1.0]hexan-3-yl)methanone] | < 500
O=C(CCc1ccccc1)N1CC2CC2(C#Cc2ccccn2)C1 (centres unmarked) [Example Compound 32, 3-phenyl-1-(1-(pyridin-2-ylethynyl)-3-azabicyclo[3.1.0]hexan-3-yl)propan-1-one] | < 500
O=C(c1cccc(Cl)c1)N1CC2CC2(C#Cc2ccccn2)C1 (centres unmarked) [Example Compound 26, (3-chlorophenyl)(1-(pyridin-2-ylethynyl)-3-azabicyclo[3.1.0]hexan-3-yl)methanone] | < 500
N#Cc1cc(F)cc(N2CC3CC3(C#Cc3cccnn3)C2)c1 (centres unmarked) [Example Compound 11, 3-fluoro-5-(1-(pyridazin-3-ylethynyl)-3-azabicyclo[3.1.0]hexan-3-yl)benzonitrile] | < 500
Fc1cc(F)cc(N2CC3CC3(C#Cc3ncccn3)C2)c1 (centres unmarked) [Example Compound 45, 3-(3,5-difluorophenyl)-1-(pyrimidin-2-ylethynyl)-3-azabicyclo[3.1.0]hexane] | < 500
O=C(Cc1ccccc1)N1CC2CC2(C#Cc2ccccn2)C1 (centres unmarked) [Example Compound 29, 2-phenyl-1-(1-(pyridin-2-ylethynyl)-3-azabicyclo[3.1.0]hexan-3-yl)ethanone] | < 500
C(#CC12CC1CN(c1ccc3[nH]cnc3c1)C2)c1ccccn1 (centres unmarked) [Example Compound 25, 5-(1-(pyridin-2-ylethynyl)-3-azabicyclo[3.1.0]hexan-3-yl)-1H-benzo[d]imidazole] | 1000 to 5000
Cc1nc(C#CC23CC2CN(C(=O)C(C)C)C3)cs1 (centres unmarked) [Example Compound 68, 2-methyl-1-(1-((2-methylthiazol-4-yl)ethynyl)-3-azabicyclo[3.1.0]hexan-3-yl)propan-1-one] | < 500
N#Cc1cncc(N2CC3CC3(C#Cc3ccccn3)C2)c1 (stereo not drawn) [Example Compound 50, S-(1-(pyridin-2-ylethynyl)-3-azabicyclo[3.1.0]hexan-3-yl)nicotinonitrile] | < 500
CCCNC(=O)N1C[C@H]2C[C@@]2(C#Cc2ccccn2)C1 [Example Compound 58, (1R,5S)—N-propyl-1-(pyridin-2-ylethynyl)-3-azabicyclo[3.1.0]hexane-3-carboxamide] | < 500
Fc1cc(Cl)cc(N2CC3CC3(C#Cc3ccccn3)C2)c1 (centres unmarked) [Example Compound 20, 3-(3-chloro-5-fluorophenyl)-1-(pyridin-2-ylethynyl)-3-azabicyclo[3.1.0]hexane] | < 500
Fc1cncc(N2CC3CC3(C#Cc3ccccn3)C2)c1 (centres unmarked) [Example Compound 4] | < 500
N#Cc1cccc(N2CC3CC3(C#Cc3ncccn3)C2)c1 (centres unmarked) [Example Compound 62, 3-(1-(pyrimidin-2-ylethynyl)-3-azabicyclo[3.1.0]hexan-3-yl)benzonitrile] | < 500
Cc1cccc(C#CC23CC2CN(C(=O)c2cccc(F)c2)C3)n1 (centres unmarked) [Example Compound 44, (3-fluorophenyl)-(1-((6-methylpyridin-2-yl)ethynyl)-3-azabicyclo[3.1.0]hexan-3-yl)methanone] | < 500
Fc1ccc(N2CC3CC3(C#Cc3ccccn3)C2)cc1 (centres unmarked) [Example Compound 2, 3-(4-fluorophenyl)-1-(pyridin-2-ylethynyl)-3-azabicyclo[3.1.0]hexane] | < 500
COC(=O)N1CC2CC2(C#Cc2ccccn2)C1 (centres unmarked) [Example Compound 53, methyl 1-(pyridin-2-ylethynyl)-3-azabicyclo[3.1.0]hexane-3-carboxylate] | < 500
Cc1nc(C#CC23CC2CN(c2cncc(F)c2)C3)cs1 (centres unmarked) [Example Compound 48, 4-((3-(S-fluoropyridin-3-yl)-3-azabicyclo[3.1.0]hexan-1-yl)ethynyl)-2-methylthiazole] | < 500
Cc1cccc(C#CC23CC2CN(c2cncc(F)c2)C3)n1 (centres unmarked) [Example Compound 43, 3-(5-fluoropyridin-3-yl)-1-((6-methylpyridin-2-yl)ethynyl)-3-azabicyclo[3.1.0]hexane] | < 500
Cc1nc(C#CC23CC2CN(c2cccc(C#N)c2)C3)cs1 (centres unmarked) [Example Compound 47, 3-(1-((2-methylthiazol-4-yl)ethynyl)-3-azabicyclo[3.1.0]hexan-3-yl)benzonitrile] | < 500
Cc1cccc(C#CC23CC2CN(C(=O)C(C)C)C3)n1 (centres unmarked) [Example Compound 64, 2-methyl-1-(1-((6-methylpyridin-2-yl)ethynyl)-3-azabicyclo[3.1.0]hexan-3-yl)propan-1-one] | < 500
